The test system of the assay is HIV-1 (H9IIIB strain). The experiment in a line: Cell-Based HIV Infection Assay Using a Reporter (MT4-GFP cells). Conditions: Human immunodeficiency virus 1, inflection point (IP) of viral growth inhibition; MT4-GFP cells infected with HIV-1 H9IIIB; 50% normal human serum; mean of at least two independent experiments; read-out: Cell Based IP (50% NHS). An outline of the steps: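 MT4-GFP cells (HIV LTR-driven GFP) bulk-infected with HIV-1 H9IIIB at low MOI for 24 h, washed, then exposed to compounds in RPMI plus 50% normal human serum, 0.4% DMSO. Infected cells counted at 24 and 48 h; R0 = 48 h/24 h ratio, inhibition normalised to DMSO and triple-drug control; IP from 4-parameter fit.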
As for `CCO[C@H]1CC[C@H](C(c2ccc(Cl)c(F)c2)[C@H](N)C(=O)Nc2cccc(F)c2CC[C@H]2CN[C@@H]3CCCS(=O)(=O)N2C3)CC1` (stereo partly drawn) [Example 248, (βR).4-chloro-N-(2-{2-[(6R,9S)-2,2-dioxido-2-thia-1,7-diazabicyclo[4.3.1]dec-9-yl]ethyl}-3-fluorophenyl)-β-[(1r,4R)-4-ethoxycyclohexyl]-3-fluoro-L-phenylalaninamide], the EC50 was 5.5 nM.

As for `N[C@H](C(=O)Nc1cccc(F)c1CC[C@H]1CN[C@@H]2CCCS(=O)(=O)N1C2)[C@H](c1cnc(C(F)(F)F)nc1)c1ccc(Cl)c(F)c1` [Example 249, (βS)-4-chloro-N-(2-{2-[(6R,9S)-2,2-dioxido-2-thia-1,7-diazabicyclo[4.3.1]dec-9-yl]ethyl}-3-fluorophenyl)-3-fluoro-β-[2-(trifluoromethyl)pyrimidin-5-yl]-L-phenylalaninamide], the EC50 turned out to be 5.1 nM.

Turning to `CC(C)O[C@H]1CC[C@H]([C@H](c2ccc(Cl)cc2)[C@H](N)C(=O)Nc2cncc(F)c2CC[C@H]2CN[C@@H]3CCCS(=O)(=O)N2C3)CC1` [Example 250, (βR)-4-chloro-N-(4-{2-[(6R,9S)-2,2-dioxido-2-thia-1,7-diazabicyclo[4.3.1]dec-9-yl]ethyl}-5-fluoropyridin-3-yl)-β-[(1r,4R)-4-(1-methylethoxy)cyclohexyl]-L-phenylalaninamide], the EC50 was 7.7 nM.

Consider `N[C@H](C(=O)Nc1cccc(F)c1CC[C@H]1CN[C@@H]2CCCS(=O)(=O)N1C2)[C@@H](c1ccc(Cl)cc1)c1csc(C(F)(F)F)n1` [Example 251, (βR)-4-chloro-N-(2-{2-[(6R,9S)-2,2-dioxido-2-thia-1,7-diazabicyclo[4.3.1]dec-9-yl]ethyl}-3-fluorophenyl)-β-[2-(trifluoromethyl)-1,3-thiazol-4-yl]-L-phenylalaninamide], for which the EC50 was found to be 9.2 nM.

In the case of `COC(=O)N[C@H](C(=O)Nc1cccc(F)c1CC[C@H]1CN[C@@H]2CCCS(=O)(=O)N1C2)[C@@H](c1ccc(Cl)cc1)c1csc(C(F)(F)F)n1` [Example 252, methyl {(1S,2R)-2-(4-chlorophenyl)-1-[(2-{2-[(6R,9S)-2,2-dioxido-2-thia-1,7-diazabicyclo[4.3.1]dec-9-yl]ethyl}-3-fluorophenyl)carbamoyl]-2-[2-(trifluoromethyl)-1,3-thiazol-4-yl]ethyl}carbamate], the EC50 was determined as 17 nM.

`CCO[C@H]1CC[C@H]([C@H](c2ccc(Cl)c(F)c2)[C@H](N)C(=O)Nc2cncc(F)c2CC[C@H]2CN[C@@H]3CCCS(=O)(=O)N2C3)CC1` [Example 253, (βR)-4-chloro-N-(4-{2-[(6R,9S)-2,2-dioxido-2-thia-1,7-diazabicyclo[4.3.1]dec-9-yl]ethyl}-5-fluoropyridin-3-yl)-β-[(1r,4R)-4-ethoxycyclohexyl]-3-fluoro-L-phenylalaninamide]: the EC50 amounted to 5.8 nM.

For the molecule `COC[C@H]1CC[C@H]([C@H](c2ccc(Cl)cc2)[C@H](N)C(=O)Nc2cncc(F)c2CC[C@H]2CN[C@@H]3CCCS(=O)(=O)N2C3)CC1` [Example 254, (βR)-4-chloro-N-(4-{2-[(6R,9S)-2,2-dioxido-2-thia-1,7-diazabicyclo[4.3.1]dec-9-yl]ethyl}-5-fluoropyridin-3-yl)-β-[(1r,4R)-4-(methoxymethyl)cyclohexyl]-L-phenylalaninamide], the EC50 was determined as 3 nM.

Regarding `CCOC(=O)N1CCC(c2ccc(Cl)cc2)([C@H](NC(=O)OC)C(=O)Nc2cccc(F)c2CC[C@H]2CN[C@@H]3CCCS(=O)(=O)N2C3)CC1` [Example 255, ethyl 4-(4-chlorophenyl)-4-{(1S)-2-[(2-{2-[(6R,9S)-2,2-dioxido-2-thia-1,7-diazabicyclo[4.3.1]dec-9-yl]ethyl}-3-fluorophenyl)amino]-1-[(methoxycarbonyl)amino]-2-oxoethyl}piperidine-1-carboxylate], the EC50 came to 18 nM.

`COC(=O)N[C@H](C(=O)Nc1cncc(F)c1CC[C@H]1CN[C@@H]2CCCS(=O)(=O)N1C2)[C@@H](c1ccc(Cl)cc1)[C@H]1CC[C@H](C(F)(F)F)CC1` [Example 256, methyl {(1S,2R)-2-(4-chlorophenyl)-1-[(4-{2-[(6R,9S)-2,2-dioxido-2-thia-1,7-diazabicyclo[4.3.1]dec-9-yl]ethyl}-5-fluoropyridin-3-yl)carbamoyl]-2-[(1r,4R)-4-(trifluoromethyl)cyclohexyl]ethyl}carbamate]: the EC50 turned out to be 8.2 nM.

As to `COC(=O)N[C@H](C(=O)Nc1cccc(F)c1CC[C@H]1CN[C@@H]2CCCS(=O)(=O)N1C2)[C@@H](c1ccc(Cl)cc1)[C@H]1CC[C@H](OC2CC2)CC1` [Example 257, methyl {(1S,2R)-2-(4-chlorophenyl)-2-[(1r,4R)-4-(cyclopropyloxy)cyclohexyl]-1-[(2-{2-[(6R,9S)-2,2-dioxido-2-thia-1,7-diazabicyclo[4.3.1]dec-9-yl]ethyl}-3-fluorophenyl)carbamoyl]ethyl}carbamate], the EC50 came out at 5.6 nM.

For `CCOC[C@H]1CC[C@H]([C@H](c2ccc(Cl)cc2)[C@H](N)C(=O)Nc2cncc(F)c2CC[C@H]2CN[C@@H]3CCCS(=O)(=O)N2C3)CC1` [Example 258, (βR)-4-chloro-N-(4-{2-[(6R,9S)-2,2-dioxido-2-thia-1,7-diazabicyclo[4.3.1]dec-9-yl]ethyl}-5-fluoropyridin-3-yl)-β-[(1r,4R)-4-(ethoxymethyl)cyclohexyl]-L-phenylalaninamide], the EC50 stood at 3.4 nM.

For `CC(C)Oc1cnc([C@H](c2ccc(Cl)cc2)[C@H](N)C(=O)Nc2cccc(F)c2CC[C@H]2CN[C@@H]3CCCS(=O)(=O)N2C3)cn1` [Example 259, (βR)-4-chloro-N-(2-{2-[(6R,9S)-2,2-dioxido-2-thia-1,7-diazabicyclo[4.3.1]dec-9-yl]ethyl}-3-fluorophenyl)-β-[5-(1-methylethoxy)pyrazin-2-yl]-L-phenylalaninamide], the EC50 turned out to be 4.2 nM.

For `Cn1nc([C@H](c2ccc(Cl)cc2)[C@H](N)C(=O)Nc2cccc(F)c2CC[C@H]2CN[C@@H]3CCCS(=O)(=O)N2C3)cc1C(F)(F)F` [Example 260, (βR)-4-chloro-N-(2-{2-[(6R,9S)-2,2-dioxido-2-thia-1,7-diazabicyclo[4.3.1]dec-9-yl]ethyl}-3-fluorophenyl)-β-[1-methyl-5-(trifluoromethyl)-1H-pyrazol-3-yl]-L-phenylalaninamide], the EC50 is 4.4 nM.

`Cn1nc(C(F)(F)F)cc1[C@H](c1ccc(Cl)cc1)[C@H](N)C(=O)Nc1cccc(F)c1CC[C@H]1CN[C@@H]2CCCS(=O)(=O)N1C2` [Example 261, (βR)-4-chloro-N-(2-{2-[(6R,9S)-2,2-dioxido-2-thia-1,7-diazabicyclo[4.3.1]dec-9-yl]ethyl}-3-fluorophenyl)-β-[1-methyl-3-(trifluoromethyl)-1H-pyrazol-5-yl]-L-phenylalaninamide]: the EC50 is 8.7 nM.

`Cn1nc(C(F)(F)F)cc1[C@H](c1ccc(Cl)cc1)[C@H](N)C(=O)Nc1cncc(F)c1CC[C@H]1CN[C@@H]2CCCS(=O)(=O)N1C2` [Example 262, (βR)-4-chloro-N-(4-{2-[(6R,9S)-2,2-dioxido-2-thia-1,7-diazabicyclo[4.3.1]dec-9-yl]ethyl}-5-fluoropyridin-3-yl)-β-[1-methyl-3-(trifluoromethyl)-1H-pyrazol-5-yl]-L-phenylalaninamide]: the EC50 worked out at 22 nM.

As for `CC(C)Oc1cnc([C@H](c2ccc(Cl)cc2)[C@H](N)C(=O)Nc2cncc(F)c2CC[C@H]2CN[C@@H]3CCCS(=O)(=O)N2C3)cn1` [Example 263, (βR)-4-chloro-N-(4-{2-[(6R,9S)-2,2-dioxido-2-thia-1,7-diazabicyclo[4.3.1]dec-9-yl]ethyl}-5-fluoropyridin-3-yl)-β-[5-(1-methylethoxy)pyrazin-2-yl]-L-phenylalaninamide], the EC50 worked out at 5.2 nM.

For the molecule `N[C@H](C(=O)Nc1cccc(F)c1CC[C@H]1CN[C@@H]2CCCS(=O)(=O)N1C2)[C@@H](c1ccc(Cl)cc1)c1nc(C(F)(F)F)cs1` [Example 264, (βR)-4-chloro-N-(2-{2-[(6R,9S)-2,2-dioxido-2-thia-1,7-diazabicyclo[4.3.1]dec-9-yl]ethyl}-3-fluorophenyl)-β-[4-(trifluoromethyl)-1,3-thiazol-2-yl]-L-phenylalaninamide], the EC50 was 6.9 nM.

Take `Cn1nc([C@H](c2ccc(Cl)c(F)c2)[C@H](N)C(=O)Nc2cccc(F)c2CC[C@H]2CN[C@@H]3CCCS(=O)(=O)N2C3)cc1C(F)(F)F` [Example 265, (βR)-4-chloro-N-(2-{2-[(6R,9S)-2,2-dioxido-2-thia-1,7-diazabicyclo[4.3.1]dec-9-yl]ethyl}-3-fluorophenyl)-3-fluoro-β-[1-methyl-5-(trifluoromethyl)-1H-pyrazol-3-yl]-L-phenylalaninamide]: the EC50 worked out at 9.8 nM.

As to `Cn1nc([C@H](c2ccc(Cl)c(F)c2)[C@H](N)C(=O)Nc2cncc(F)c2CC[C@H]2CN[C@@H]3CCCS(=O)(=O)N2C3)cc1C(F)(F)F` [Example 266, (βR)-4-chloro-N-(4-{2-[(6R,9S)-2,2-dioxido-2-thia-1,7-diazabicyclo[4.3.1]dec-9-yl]ethyl}-5-fluoropyridin-3-yl)-3-fluoro-β-[1-methyl-5-(trifluoromethyl)-1H-pyrazol-3-yl]-L-phenylalaninamide], the EC50 stood at 11 nM.

`Cn1nc(C(F)(F)F)cc1[C@H](c1ccc(Cl)c(F)c1)[C@H](N)C(=O)Nc1cccc(F)c1CC[C@H]1CN[C@@H]2CCCS(=O)(=O)N1C2` [Example 267, (βR)-4-chloro-N-(2-{2-[(6R,9S)-2,2-dioxido-2-thia-1,7-diazabicyclo[4.3.1]dec-9-yl]ethyl}-3-fluorophenyl)-3-fluoro-β-[1-methyl-3-(trifluoromethyl)-1H-pyrazol-5-yl]-L-phenylalaninamide]: the EC50 was determined as 8 nM.

The values above are taken from patent US10138255B2, “Piperazine derivatives as HIV protease inhibitors” (Merck Sharp & Dohme Corp., priority 2014, dated 2018).
